This passage reports Activity and IC50 results from ChEMBL document CHEMBL1255173, “Dihydro-resveratrol--a potent dietary polyphenol” (Bioorg Med Chem Lett, 2010).

Format in all cases: functional, cell-based
For test [1], the system named is MDA-MB-231. In words: Cytotoxicity against human MDA-MB-231 cells after 48 hrs by MTT assay.
The subject of test [2] is BT-474. The experiment in a line: Cytotoxicity against human BT474 cells after 48 hrs by MTT assay. Background: Tetrazolium dyes change colour on reduction, which living cells bring about.
Test [3] relates to K562. The experiment in a line: Cytotoxicity against human K562 cells after 48 hrs by MTT assay. Particulars: K562, 48 h.
The test system of test [4] is MCF7. The experiment in a line: Cytotoxicity against human MCF7 cells after 48 hrs by MTT assay. Particulars: MCF7, 48 h.

Activity calls are given as the source filed them. The calls are words filed in the database; no cut-off is given here. A value given as a limit tells only on which side of the number the result lay.

By IC50 is commonly meant the point on the concentration scale where inhibition reaches its midpoint. A low value points to greater potency in that assay. As to `Oc1ccc(CCc2cc(O)cc(O)c2)cc1` [DIHYDRORESVERATROL], the result in test [1] and in test [2] was inactive. For the same compound, the 50% inhibitory concentration (IC50) in test [3] was under 1000 nM.

In turn, `O=c1c(-c2ccc(O)cc2)coc2cc(O)cc(O)c12` [GENISTEIN] returned an IC50 in test [4] of 1000 nM.
